Source: patent US9675702B2, “Methods and compositions for the sustained release of chromium” (JDS Therapeutics, LLC, priority 2007, dated 2017)
Like-named read-outs stand apart in the source and are kept apart here.

Key:
skeletal muscle cells = assay: Glucose uptake ([3H]-deoxyglucose) in cultured skeletal muscle cells with or without insulin; type: cell-based; details: insulin-stimulated cells; versus cultures without chromium supplementation
Description: The following example describes experiments that compared the effects of chromium supplementation in the form of chromium picolinate versus a combination of chromium picolinate:chormium histidinate (1:1 elemental chromium) on glucose uptake in skeletal muscle cells. The amounts of chromium picolinate and the combination were adjusted so as to provide equimolar amounts of elemental chromium. […] To assess glucose uptake, [^3H]C-deoxyglucose was added to cultures of skeletal muscle, in media with or without insulin and with or without the indicated chromium supplementation. Uptake of the labeled glucose by the cells was calculated.

Wistar rats = assay: 12-week chromium supplementation in water of rats fed normal or high fat diet; serum glucose, cholesterol, triglycerides, free fatty acids; type: in vivo; details: for serum triglyceride levels / free fatty acid levels / total serum cholesterol levels / serum glucose levels: 12 weeks; for total serum cholesterol levels: rats fed a normal diet (FIG. 3A); for reduction in serum glucose levels compared with other chromium supplementation: same total elemental chromium; for serum glucose levels: 1.43 μg chromium in water
Description: Wistar rats were reared at the temperature of (22±2° C.), humidity (55±5%) and a 12/12 h light/dark cycle. Pellet food and water were provided ad libitum. Rats were randomly assigned to one of eight treatment groups. Group 1: Control rats were fed standard diet (12% of calories as fat) for 12 weeks. Group 2: Rats were fed standard diet with chromium picolinate ([…] 1.43 μg chromium) included in the water for 12 weeks. Group 3: […] Group 4: […] Group 5: Rats were fed high fat diet (40% of calories as fat) for 12 weeks. Group 6: Rats were fed high-fat diet (40% of calories as fat) and with chromium picolinate (14.3 μg, providing 1.43 μg chromium) included in the water for 12 weeks. Group 7: […] Group 8: […] Bodyweight, serum glucose, composite insulin sensitivity index (CISI), serum cholesterol, serum triglycerides and serum free fatty acid levels were measured. The baseline levels for the control rats (no chromium supplementation) that were fed normal or high fat diets are shown in Table 1, below. Serum glucose levels, serum cholesterol levels, serum triglyceride levels, and free fatty acid levels were measured in all groups after twelve weeks.

rats = details: cited from earlier work
[1] = cited from earlier work
[2] = rats fed a high fat diet (FIG. 4B)
[3] = rats fed a high fat diet (FIG. 5B)
[4] = rats fed a normal diet (FIG. 4A)
[5] = rats fed a normal diet (FIG. 5A)

Row | Compound | serum triglyceride levels (Wistar rats; [2]) | free fatty acid levels (Wistar rats; [3]) | total serum cholesterol levels (Wistar rats) | serum triglyceride levels (Wistar rats; [4]) | free fatty acid levels (Wistar rats; [5]) | other results
1 | chromium picolinate | significant decrease | significant decrease | significant decrease | significant decrease | significant decrease | glucose uptake (skeletal muscle cells): stimulated glucose uptake; toxic effects (rats; rat, in vivo): without toxic effects
2 | chromium histidinate | significant decrease | significant decrease | significant decrease | significant decrease | significant decrease | reduction in serum glucose levels compared with other chromium supplementation (Wistar rats; high fat diet rats (FIG. 2B)): significantly greater degree than chromium picolinate; serum glucose levels (Wistar rats; high-fat fed rats): decreased serum glucose levels; reduction in serum glucose levels compared with other chromium supplementation (Wistar rats; normal diet rats (FIG. 2A)): significantly greater degree than chromium picolinate; serum glucose levels (Wistar rats; normal diet rats): decreased serum glucose levels
3 | N[C@@H](Cc1c[nH]cn1)C(=O)O [histidine] | – | – | – | – | – | pKa [1]: ~6.0
4 | [Cl][Cr]([Cl])[Cl] [chromium chloride] | – | – | – | – | – | toxic effects (rats; rats, levels several thousand times the upper limit of the ESADDI for chromium for humans (based on body weight)): without toxic effects
